Data: PubChem BioAssay AID1259407 (Chemical Carcinogenesis Research Information System (CCRIS), 2018)
The source made the active and inactive calls. How the calls were made is not given here.

System: CCRIS mutagenicity, Ames/micronucleus/aberration tests
Experiment: CCRIS mutagenicity studies

CC=O
mutagenic call (End Point: In vitro chromosomal aberrations, Test System: Chinese hamster lung (CHL/IU) cells, Metabolic Activation: None): active; positive (structural changes) | mutagenic call (End Point: In vitro chromosomal aberrations, Test System: Chinese hamster lung (CHL/IU) cells, Metabolic Activation: Rat, Liver, S9, Phenobarbital and 5,6-benzoflavone): active; positive (structural changes) | mutagenic call (End Point: In vivo micronucleus, Test System: Peripheral blood reticulocytes, Species: Mouse, Strain/Sex: Aldh2+/+ aldehyde dehydrogenase-2 sufficient /male, Route: Inhalation): inactive; negative | mutagenic call (End Point: In vivo micronucleus, Test System: Peripheral blood reticulocytes, Species: Mouse, Strain/Sex: Aldh2+/+ aldehyde dehydrogenase-2 sufficient /male, Route: Oral): inactive; negative | mutagenic call (End Point: In vivo micronucleus, Test System: Peripheral blood reticulocytes, Species: Mouse, Strain/Sex: Aldh2-/- aldehyde dehydrogenase-2 null /male, Route: Inhalation): active; positive | mutagenic call (End Point: In vivo micronucleus, Test System: Peripheral blood reticulocytes, Species: Mouse, Strain/Sex: Aldh2-/- aldehyde dehydrogenase-2 null /male, Route: Oral): active; positive | mutagenic call (Test System: AMES SALMONELLA TYPHIMURIUM, Strain/Indicator: TA98, Metabolic Activation: HAMSTER, LIVER, S-9, AROCLOR 1254, Method: STANDARD PLATE): inactive; negative | mutagenic call (Test System: AMES SALMONELLA TYPHIMURIUM, Strain/Indicator: TA98, Metabolic Activation: NONE, Method: GAS EXPOSURE): inactive; negative | mutagenic call (Test System: AMES SALMONELLA TYPHIMURIUM, Strain/Indicator: TA98, Metabolic Activation: NONE, Method: PREINCUBATION): inactive; negative | mutagenic call (Test System: AMES SALMONELLA TYPHIMURIUM, Strain/Indicator: TA98, Metabolic Activation: NONE, Method: STANDARD PLATE): inactive; negative | mutagenic call (Test System: AMES SALMONELLA TYPHIMURIUM, Strain/Indicator: TA98, Metabolic Activation: RAT LIVER S-9, PHENOBARBITAL AND BETA-NAPHTHOFLAVONE, Method: PREINCUBATION): inactive; negative | mutagenic call (Test System: AMES SALMONELLA TYPHIMURIUM, Strain/Indicator: TA98, Metabolic Activation: RAT, LIVER, S-9, AROCLOR 1254, Method: PREINCUBATION): inactive; negative | mutagenic call (Test System: AMES SALMONELLA TYPHIMURIUM, Strain/Indicator: TA98, Metabolic Activation: RAT, LIVER, S-9, AROCLOR 1254, Method: STANDARD PLATE): inactive; negative | mutagenic call (Test System: AMES SALMONELLA TYPHIMURIUM, Strain/Indicator: TA98, Metabolic Activation: RAT, LIVER, S-9, PHENOBARBITAL AND BETA-NAPHTHOFLAVONE, Method: GAS EXPOSURE): inactive; negative | mutagenic call (Test System: AMES SALMONELLA TYPHIMURIUM, Strain/Indicator: TA100, Metabolic Activation: HAMSTER, LIVER, S-9, AROCLOR 1254, Method: STANDARD PLATE): inactive; negative | mutagenic call (Test System: AMES SALMONELLA TYPHIMURIUM, Strain/Indicator: TA100, Metabolic Activation: MOUSE LIVER S-9, AROCLOR 1254, Method: VAPOR PHASE): inactive; negative | mutagenic call (Test System: AMES SALMONELLA TYPHIMURIUM, Strain/Indicator: TA100, Metabolic Activation: NONE, Method: GAS EXPOSURE): inactive; negative | mutagenic call (Test System: AMES SALMONELLA TYPHIMURIUM, Strain/Indicator: TA100, Metabolic Activation: NONE, Method: PREINCUBATION): inactive; negative | mutagenic call (Test System: AMES SALMONELLA TYPHIMURIUM, Strain/Indicator: TA100, Metabolic Activation: NONE, Method: STANDARD PLATE): inactive; negative | mutagenic call (Test System: AMES SALMONELLA TYPHIMURIUM, Strain/Indicator: TA100, Metabolic Activation: NONE, Method: VAPOR PHASE): inactive; negative | mutagenic call (Test System: AMES SALMONELLA TYPHIMURIUM, Strain/Indicator: TA100, Metabolic Activation: RAT LIVER S-9, AROCLOR 1254, Method: VAPOR PHASE): inactive; negative | mutagenic call (Test System: AMES SALMONELLA TYPHIMURIUM, Strain/Indicator: TA100, Metabolic Activation: RAT LIVER S-9, PHENOBARBITAL AND BETA-NAPHTHOFLAVONE, Method: PREINCUBATION): inactive; negative | mutagenic call (Test System: AMES SALMONELLA TYPHIMURIUM, Strain/Indicator: TA100, Metabolic Activation: RAT, LIVER, S-9, AROCLOR 1254, Method: PREINCUBATION): inactive; negative | mutagenic call (Test System: AMES SALMONELLA TYPHIMURIUM, Strain/Indicator: TA100, Metabolic Activation: RAT, LIVER, S-9, AROCLOR 1254, Method: STANDARD PLATE): inactive; negative | mutagenic call (Test System: AMES SALMONELLA TYPHIMURIUM, Strain/Indicator: TA100, Metabolic Activation: RAT, LIVER, S-9, PHENOBARBITAL AND BETA-NAPHTHOFLAVONE, Method: GAS EXPOSURE): inactive; negative | mutagenic call (Test System: AMES SALMONELLA TYPHIMURIUM, Strain/Indicator: TA102, Metabolic Activation: MOUSE LIVER S-9, AROCLOR 1254, Method: VAPOR PHASE): inactive; negative | mutagenic call (Test System: AMES SALMONELLA TYPHIMURIUM, Strain/Indicator: TA102, Metabolic Activation: NONE, Method: PREINCUBATION): inactive; negative | mutagenic call (Test System: AMES SALMONELLA TYPHIMURIUM, Strain/Indicator: TA102, Metabolic Activation: NONE, Method: VAPOR PHASE): inactive; negative | mutagenic call (Test System: AMES SALMONELLA TYPHIMURIUM, Strain/Indicator: TA102, Metabolic Activation: RAT, LIVER, S-9, AROCLOR 1254, Method: PREINCUBATION): inactive; negative | mutagenic call (Test System: AMES SALMONELLA TYPHIMURIUM, Strain/Indicator: TA104, Metabolic Activation: MOUSE LIVER S-9, AROCLOR 1254, Method: VAPOR PHASE): inactive; negative | mutagenic call (Test System: AMES SALMONELLA TYPHIMURIUM, Strain/Indicator: TA104, Metabolic Activation: NONE, Method: VAPOR PHASE): inactive; negative | mutagenic call (Test System: AMES SALMONELLA TYPHIMURIUM, Strain/Indicator: TA104, Metabolic Activation: RAT LIVER S-9, AROCLOR 1254, Method: VAPOR PHASE): inactive; negative | mutagenic call (Test System: AMES SALMONELLA TYPHIMURIUM, Strain/Indicator: TA1535, Metabolic Activation: HAMSTER, LIVER, S-9, AROCLOR 1254, Method: STANDARD PLATE): inactive; negative | mutagenic call (Test System: AMES SALMONELLA TYPHIMURIUM, Strain/Indicator: TA1535, Metabolic Activation: NONE, Method: GAS EXPOSURE): inactive; negative | mutagenic call (Test System: AMES SALMONELLA TYPHIMURIUM, Strain/Indicator: TA1535, Metabolic Activation: NONE, Method: PREINCUBATION): inactive; negative | mutagenic call (Test System: AMES SALMONELLA TYPHIMURIUM, Strain/Indicator: TA1535, Metabolic Activation: NONE, Method: STANDARD PLATE): inactive; negative | mutagenic call (Test System: AMES SALMONELLA TYPHIMURIUM, Strain/Indicator: TA1535, Metabolic Activation: RAT LIVER S-9, PHENOBARBITAL AND BETA-NAPHTHOFLAVONE, Method: PREINCUBATION): inactive; negative | mutagenic call (Test System: AMES SALMONELLA TYPHIMURIUM, Strain/Indicator: TA1535, Metabolic Activation: RAT, LIVER, S-9, AROCLOR 1254, Method: STANDARD PLATE): inactive; negative | mutagenic call (Test System: AMES SALMONELLA TYPHIMURIUM, Strain/Indicator: TA1535, Metabolic Activation: RAT, LIVER, S-9, PHENOBARBITAL AND BETA-NAPHTHOFLAVONE, Method: GAS EXPOSURE): inactive; negative | mutagenic call (Test System: AMES SALMONELLA TYPHIMURIUM, Strain/Indicator: TA1537, Metabolic Activation: HAMSTER, LIVER, S-9, AROCLOR 1254, Method: STANDARD PLATE): inactive; negative | mutagenic call (Test System: AMES SALMONELLA TYPHIMURIUM, Strain/Indicator: TA1537, Metabolic Activation: NONE, Method: GAS EXPOSURE): inactive; negative | mutagenic call (Test System: AMES SALMONELLA TYPHIMURIUM, Strain/Indicator: TA1537, Metabolic Activation: NONE, Method: PREINCUBATION): inactive; negative | mutagenic call (Test System: AMES SALMONELLA TYPHIMURIUM, Strain/Indicator: TA1537, Metabolic Activation: NONE, Method: STANDARD PLATE): inactive; negative | mutagenic call (Test System: AMES SALMONELLA TYPHIMURIUM, Strain/Indicator: TA1537, Metabolic Activation: RAT LIVER S-9, PHENOBARBITAL AND BETA-NAPHTHOFLAVONE, Method: PREINCUBATION): inactive; negative | mutagenic call (Test System: AMES SALMONELLA TYPHIMURIUM, Strain/Indicator: TA1537, Metabolic Activation: RAT, LIVER, S-9, AROCLOR 1254, Method: STANDARD PLATE): inactive; negative | mutagenic call (Test System: AMES SALMONELLA TYPHIMURIUM, Strain/Indicator: TA1537, Metabolic Activation: RAT, LIVER, S-9, PHENOBARBITAL AND BETA-NAPHTHOFLAVONE, Method: GAS EXPOSURE): inactive; negative | mutagenic call (Test System: AMES SALMONELLA TYPHIMURIUM, Strain/Indicator: TA1538, Metabolic Activation: HAMSTER, LIVER, S-9, AROCLOR 1254, Method: STANDARD PLATE): inactive; negative | mutagenic call (Test System: AMES SALMONELLA TYPHIMURIUM, Strain/Indicator: TA1538, Metabolic Activation: NONE, Method: PREINCUBATION): inactive; negative | mutagenic call (Test System: AMES SALMONELLA TYPHIMURIUM, Strain/Indicator: TA1538, Metabolic Activation: NONE, Method: STANDARD PLATE): inactive; negative | mutagenic call (Test System: AMES SALMONELLA TYPHIMURIUM, Strain/Indicator: TA1538, Metabolic Activation: RAT LIVER S-9, PHENOBARBITAL AND BETA-NAPHTHOFLAVONE, Method: PREINCUBATION): inactive; negative | mutagenic call (Test System: AMES SALMONELLA TYPHIMURIUM, Strain/Indicator: TA1538, Metabolic Activation: RAT, LIVER, S-9, AROCLOR 1254, Method: STANDARD PLATE): inactive; negative | mutagenic call (Test System: E. COLI, Strain/Indicator: WP2UVRA, Metabolic Activation: NONE, Method: GAS EXPOSURE): inactive; negative | mutagenic call (Test System: E. COLI, Strain/Indicator: WP2UVRA, Metabolic Activation: RAT, LIVER, S-9, PHENOBARBITAL AND BETA-NAPHTHOFLAVONE, Method: GAS EXPOSURE): inactive; negative | mutagenic call (Test System: E.COLI, Strain/Indicator: WP2UVRA, Metabolic Activation: NONE, Method: PREINCUBATION): inactive; negative | mutagenic call (Test System: E.COLI, Strain/Indicator: WP2UVRA, Metabolic Activation: RAT LIVER S-9, PHENOBARBITAL AND BETA-NAPHTHOFLAVONE, Method: PREINCUBATION): inactive; negative | mutagenic call (Test System: HUMAN SKIN FIBROBLASTS, Strain/Indicator: 6-THIOGUANINE, Metabolic Activation: NONE): active; positive | mutagenic call (Test System: MOUSE LYMPHOMA, Strain/Indicator: L5178Y (TK+/TK-), Metabolic Activation: RAT, LIVER, S-9, AROCLOR 1254, Method: SUSPENSION/PLATE): active; positive. reevaluation of results: inconclusive
